Test results taken from patent US10881668B2, “Acetamide thienotriazolodiazepines and uses thereof” (Dana-Farber Cancer Institute, Inc., priority 2015, dated 2021).
Read-outs that look alike come from different tables or passages of the source.

Key:
[1] = male, CD1, mouse, in vivo
Description: (§4) Pharmacokinetic parameters were determined by administration of a candidate bromodomain inhibitor to male CD1 mice. Intravenous doses were delivered at 5 mg/kg, and oral doses at 10 mg/kg (N=3). […] The compound concentration in mouse blood was monitored over 24-hour time period to check the compound concentration in blood at 5 min, 30 min, 1 hour, 2 hours, 6 hours, 12 hours, and 24 hour via a series bleeding.

in vivo = settings: male, CD1, mouse, iv, 1 mg/kg
Description: as §4

[2] = test system: NMC797 cell line (BRD4 dependant NUT midline carcinoma line); assay: Cell proliferation assay (ATP content), NMC797; type: cell-based; settings: 48-hour incubation
Description: (§1) The IC50 values of the compounds were determined by ALPHASCREENING assays for BRD4 and BRDT protein. NMC797 cell line is a BRD4 dependant NUT midline carcinoma line.
Cell Proliferation Assay.
Cells were seeded into white, 384-well microtiter plates (Nunc) at 500 cells per well in a total volume of 50 μL media. The 797, TT, and TE10 cells were grown in DMEM containing 1% penicillin/streptomycin and 10% FBS. The Per403 cells were grown in DMEM containing 1% penicillin/streptomycin and 20% FBS. Compounds were delivered to microtiter assay plates by robotic pin transfer (PerkinElmer JANUS equipped with a V&P Scientific 100 nL pin tool). Following a 48-hour incubation at 37° C., cells were lysed and wells were assessed for total ATP content using a commercial proliferation assay (Cell TITERGLO; Promega). Replicate measurements were analyzed with respect to dose and estimates of IC50 were calculated by logistic regression ([…] PRISM).

[3] = Pharmacokinetics in male CD1 mice, IV administration; settings: whole blood; for AUC(0-inf) / AUC(0-t) / MRT inf / Vd / clearance / half-life: male, CD1, mouse, iv, 5 mg/kg
Description: as §4

[4] = Pharmacokinetics in male CD1 mice, oral administration; settings: for F: oral 10 mg/kg (IV 5 mg/kg)
Description: as §4

BRDT(1) = BRDT(1) (Homo sapiens (Human), UniProt Q58F21); assay: AlphaScreen acetyl-histone binding assay, BRDT(1); settings: H4K5acK8acK12acK16ac peptide
Description: as §1
(§2) Acetyl-Histone Binding Assay.
(§3) Assays were performed as described previously with minor modifications from the manufacturer's protocol (PerkinElmer, USA). All reagents were diluted in 50 mM HEPES, 100 mM NaCl, 0.1% BSA, pH 7.4 supplemented with 0.05% CHAPS and allowed to equilibrate to room temperature prior to addition to plates. A 24-point 1:2 serial dilution of the ligands was prepared over the range of 150-0 μM and 4 μl transferred to low-volume 384-well plates (PROXIPLATE™-384 Plus, PerkinElmer, USA), followed by 4 μl of HIS-tagged protein (BRD4/1, 250 nM, BRD4/2 and CREBBP, 2000 nM). […] Plates were sealed and incubated for a further 30 minutes, before the addition of 4 μl of streptavidin-coated donor beads (25 μg/ml) and 4 μl nickel chelate acceptor beads (25 μg/ml) under low light conditions. Plates were foil-sealed to protect from light, incubated at room temperature for 60 minutes and read on a PHERASTAR FS plate reader (BMG Labtech, Germany) using an ALPHASCREEN 680 excitation/570 emission filter set. IC50 values were calculated in Prism 5 ([…] Software, USA) after normalization against corresponding DMSO controls and are given as the final concentration of compound in the 20 μl reaction volume.

BRD4(1) = BRD4(1) (Homo sapiens (Human), UniProt O60885); assay: AlphaScreen acetyl-histone binding assay, BRD4(1); settings: H4K5acK8acK12acK16ac peptide
Description: as §1, §2, §3

[5] = male CD1 mice, oral 10 mg/kg, whole blood, N=3
[6] = male, CD1, mouse, whole blood, po, 10 mg/kg

In the case of `Cc1sc2c(c1C)C(c1ccc(Cl)cc1)=N[C@@H](CC(=O)NCCCN1CCC(N3CCCCC3)CC1)c1nnc(C)n1-2` [Compound 602], the F [1] is reported as 2% and the half-life (in vivo) is reported as 21 h.
For `Cc1sc2c(c1C)C(c1ccc(Cl)cc1)=N[C@@H](CC(=O)NCCCN1CCCC1)c1nnc(C)n1-2` [Compound 604], the F [1] was 7% and the half-life (in vivo) was 2 h.
`Cc1sc2c(c1C)C(c1ccc(Cl)cc1)=N[C@@H](CC(=O)N1CCC(N3CCCCC3)CC1)c1nnc(C)n1-2` [Compound 603] gave an F [1] of 20% and a half-life (in vivo) of 1 h.
For `Cc1sc2c(c1C)C(c1ccc(Cl)cc1)=N[C@@H](CC(=O)OC(C)(C)C)c1nnc(C)n1-2` [JQ1, reference compound], the IC50 ([2]; NMC797 cells) was 21 nM, the AUCINF ([3]; male CD1 mice, IV 5 mg/kg, N=3) was 2130 ng·h/mL and the AUClast ([3]; male CD1 mice, IV 5 mg/kg, N=3) was 2130 ng·h/mL. For the same compound, the CL ([3]; male CD1 mice, IV 5 mg/kg, N=3) was 39.2 mL/min/kg, the MRTINF ([3]; male CD1 mice, IV 5 mg/kg, N=3) was 0.861 h and the AUCINF [4, 5] was 2090 ng·h/mL. For the same compound, the AUClast [4, 5] was 2040 ng·h/mL, the Cmax [4, 5] was 1180 ng/mL and the Tmax [4, 5] was 0.250 h.
In the case of `Cc1sc2c(c1C)C(c1ccc(Cl)cc1)=N[C@@H](CC(=O)NCC(F)F)c1nnc(C)n1-2` [Compound 504], the IC50 (BRDT(1)) is reported as 69 nM and the IC50 ([2]; NMC-797, NMC797 cells) is reported as 54 nM.
In the case of `Cc1sc2c(c1C)C(c1ccc(Cl)cc1)=N[C@@H](CC(=O)NCC1CCN(CCN(C)C)CC1)c1nnc(C)n1-2` [Compound 601], the F [1] is reported as 4% and the half-life (in vivo) is reported as 11.7 h.
With `Cc1sc2c(c1C)C(c1ccc(Cl)cc1)=N[C@@H](CC(=O)NC[C@@H](C)O)c1nnc(C)n1-2` [Compound 502] the IC50 (BRDT(1)) was 61 nM, the IC50 ([2]; NMC-797, NMC797 cells) was 29 nM and the AUC(0-inf) [3] was 2960 ng·h/mL. The AUC(0-t) [3] was 2940 ng·h/mL, the MRT inf [3] was 0.882 h and the Vd [3] was 1.48 L/kg. It also gave a clearance [3] of 29.5 mL/min/kg, a half-life [3] of 1.06 h and an F ([4]; male CD1 mice, N=3) of 53.4%. For the same compound, the AUC(0-inf) [4, 6] was 3160 ng·h/mL, the AUC(0-t) [4, 6] was 3100 ng·h/mL and the Cmax [4, 6] was 1430 ng/mL. The Tmax [4, 6] was 0.5 h and the half-life [4, 6] was 1.37 h.
In the case of `Cc1sc2c(c1C)C(c1ccc(Cl)cc1)=N[C@@H](CC(=O)N1CCn3c(nnc3C(F)(F)F)C1)c1nnc(C)n1-2` [Compound 605], the F [1] is reported as 6% and the half-life (in vivo) is reported as 0.5 h.
Compound `Cc1sc2c(c1C)C(c1ccc(Cl)cc1)=N[C@@H](CC(=O)NCCC(F)F)c1nnc(C)n1-2` [Compound 505] has an IC50 (BRDT(1)) of 75 nM and an IC50 ([2]; NMC-797, NMC797 cells) of 93 nM.
Compound `Cc1sc2c(c1C)C(c1ccc(Cl)cc1)=N[C@@H](CC(=O)NCC(C)(C)O)c1nnc(C)n1-2` [Compound 503] has an IC50 (BRDT(1)) of 89 nM, an IC50 (BRD4(1)) of 44 nM and an IC50 ([2]; NMC-797, NMC797 cells) of 42 nM.
`Cc1sc2c(c1C)C(c1ccc(Cl)cc1)=N[C@@H](CC(=O)NC[C@H](C)O)c1nnc(C)n1-2` [Compound 501] gave an IC50 (BRDT(1)) of 82 nM, an IC50 ([2]; NMC-797, NMC797 cells) of 30 nM and an AUC(0-inf) [3] of 2390 ng·h/mL. For the same compound, the AUC(0-t) [3] was 2380 ng·h/mL, the MRT inf [3] was 0.718 h and the Vd [3] was 1.54 L/kg. For the same compound, the clearance [3] was 36.7 mL/min/kg, the half-life [3] was 1.51 h and the F ([4]; male CD1 mice, N=3) was 53.7%. For the same compound, the AUC(0-inf) [4, 6] was 2570 ng·h/mL, the AUC(0-t) [4, 6] was 2520 ng·h/mL and the Cmax [4, 6] was 1260 ng/mL. It also gave a Tmax [4, 6] of 0.417 h and a half-life [4, 6] of 1.54 h.
